# According to patent publication US6358883B1, “Pesticidal and parasiticidal use of 1-aryl-1-(substituted thio, sulfinyl and sulfonyl)-2-nitroethane compounds” (American Cyanamid Company, priority 1998, dated 2002):
# Columns and labels:
# Assay type in all cases: in vivo
# [1] = test system: Spodoptera eridania, eggs-southern armyworm (SAW-Eggs); assay: Southern armyworm eggs (SAW-Eggs) treated diet test; parameters: key: 0 = no effect; 1 = 10-25% kill; 2 = 26-35% kill; 3 = 36-45% kill; 4 = 46-55% kill; 5 = 56-65% kill; 6 = 66-75% kill; 7 = 76-85% kill; 8 = 86-99% kill; 9 = 100% kill; conditions: mortality after 7 days
# Method in brief: (§1)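 Eggs of S. eridania or D. undecimpunctata howardi were set on artificial diet pretreated with test solution (10,000 ppm stock in 35% aqueous acetone, water dilutions) and dried. Wells were sealed with vented clear covers, and mortality was scored at day 7.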
# [2] = test system: Diabrotica undecimpunctata howardi, eggs-southern corn rootworm (SCR-Eggs); assay: Southern corn rootworm eggs (SCR-Eggs) treated diet test; parameters: key: 0 = no effect; 1 = 10-25% kill; 2 = 26-35% kill; 3 = 36-45% kill; 4 = 46-55% kill; 5 = 56-65% kill; 6 = 66-75% kill; 7 = 76-85% kill; 8 = 86-99% kill; 9 = 100% kill; conditions: mortality after 7 days
# Method in brief: as §1
# [3] = test system: Spodoptera eridania, 2nd instar larvae, southern armyworm (SAW); assay: Southern armyworm (SAW) leaf dip test; parameters: key: 0 = no effect; 1 = 10-25% kill; 2 = 26-35% kill; 3 = 36-45% kill; 4 = 46-55% kill; 5 = 56-65% kill; 6 = 66-75% kill; 7 = 76-85% kill; 8 = 86-99% kill; 9 = 100% kill
# Method in brief: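 Ten 2nd instar caterpillars feed on a Sieva lima bean leaf that was dipped 3 seconds in test solution (stock 10,000 ppm in 35% acetone/water, water-diluted). Five days later, larvae are assessed for death, feeding reduction or abnormal molting.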
# [4] = test system: M. incognita (Root Knot Nematode) larvae; assay: Evaluation of test compounds against M. incognita larvae in microtiter plate wells (movement score); conditions: larvae scored for movement after 20-24 hours; note: key: A score of '9' indicates inactive worms with a straight, sticklike morphology; A score of '8' indicates inactive worms with a limp, curled or curved morphology; A score of '7' indicates dead/paralyzed worms after 72 hours
# Method in brief: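 Scoring is by larval movement: dead or paralyzed worms count as positive, and a "7" means dead/paralyzed at 72 hours. Freshly hatched root-knot larvae (50-65 per well) in buffered S Medium were incubated with compounds under plate sealers for 20-24 h before the first read.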
# [5] = test system: Diabrotica virgifera virgifera Leconte, 2nd instar western corn rootworm (WCR); assay: Western corn rootworm (WCR) soil test; parameters: key: 0 = no effect; 1 = 10-25% kill; 2 = 26-35% kill; 3 = 36-45% kill; 4 = 46-55% kill; 5 = 56-65% kill; 6 = 66-75% kill; 7 = 76-85% kill; 8 = 86-99% kill; 9 = 100% kill
# Method in brief: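 Ten 2nd-instar rootworm larvae are placed in jars of moist soil with millet seed and talc treated with 1.25 mg active ingredient (roughly 50 kg/ha) from a 35% acetone-in-water solution. After 5 days mortality is scored, counting missing larvae as dead.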
# [6] = test system: C. elegans (Bristol strain); assay: Evaluation of test compounds against C. elegans (motility, 96-well plate); parameters: key: 9=complete kill in 4 hours; 8=complete kill in 24 hours; 7=markedly reduced motility in approximately 95% of worms in 24 hours; 0=normal motility, same as controls; conditions: motility at 4 and 24 hours
# Method in brief: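 Activity is a semi-quantitative visual score of adult and larval movement, read at 4 h and 24 h post-immersion at 20 °C after gentle tapping. Worms were suspended in Na buffer in wells where compound, dissolved in 80% acetone, had been evaporated.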
# [7] = test system: Tetranychus urticae (OP-resistant strain), 2-spotted spider mite (TSM); assay: 2-spotted spider mite (TSM) plant dip test; parameters: key: 0 = no effect; 1 = 10-25% kill; 2 = 26-35% kill; 3 = 36-45% kill; 4 = 46-55% kill; 5 = 56-65% kill; 6 = 66-75% kill; 7 = 76-85% kill; 8 = 86-99% kill; 9 = 100% kill; conditions: mortality after 2 days
# Method in brief: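 Mortality counted 2 days after a 3 s agitated dip of infested Sieva lima bean plants. Compound came from a 10,000 ppm stock in 35% aqueous acetone, with further dilution in water. Each primary leaf carried about 100 OP-resistant mites, allowed to settle ~2 h before dipping.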
# [8] = test system: Aphis gossypii, cotton aphid (CA); assay: Cotton aphid (CA) cotyledon dip test; parameters: key: 0 = no effect; 1 = 10-25% kill; 2 = 26-35% kill; 3 = 36-45% kill; 4 = 46-55% kill; 5 = 56-65% kill; 6 = 66-75% kill; 7 = 76-85% kill; 8 = 86-99% kill; 9 = 100% kill; conditions: mortality after 5 days
# Method in brief: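 Mortality was scored 5 days after dipping aphid-infested cotyledons, colonised overnight from a transfer leaf, into water dilutions of a 35% acetone/water compound solution.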
Compound,SAW Eggs (300 ppm) rating [1],SCR Eggs (1000 ppm) rating [2],SAW (300 ppm) rating [3],M. incognita (150 ppm) score [4],WCR (50 ppm) rating [5],Rating Against C. elegans (150 ppm) [6],TSM (300 ppm) rating [7],CA (300 ppm) rating [8]
CCCOC(=O)CSC(C[N+](=O)[O-])c1cccc(C#N)c1 (racemic) [Example 100],0,0,0,0,0,8,0,0
COC(=O)CSC(C[N+](=O)[O-])c1ccc(OC)cc1 (centres unmarked) [Example 47],0,0,0,9,4 (4 = 46-55% kill),9,4 (4 = 46-55% kill),0
CCCOC(=O)CSC(C[N+](=O)[O-])c1ccc(OC)cc1 (racemic) [Example 102],0,0,0,9,0,9,0,0
O=[N+]([O-])CC(SCc1ccccc1)c1ccc2ccccc2c1 (racemic) [Example 116],0,0,0,0,0,0,0,0
O=C(CSC(C[N+](=O)[O-])c1c(Cl)cccc1Cl)OCc1ccccc1 (centres unmarked) [Example 135],0,9 (9 = 100% kill),0,0,0,0,0,0
COc1cccc(C(C[N+](=O)[O-])SCC(=O)OCc2ccccc2)c1 (racemic) [Example 107],0,0,0,0,0,0,0,0
COC(=O)CSC(C[N+](=O)[O-])c1ccc2c(c1)OCO2 (centres unmarked) [Example 18],0,0,0,9,0,9,0,9 (9 = 100% kill)
CCCCOC(=O)CSC(C[N+](=O)[O-])c1c(Cl)cccc1Cl (centres unmarked) [Example 134],0,0,0,0,0,0,0,0
CCCCOC(=O)CSC(C[N+](=O)[O-])c1ccc(OC)cc1 (centres unmarked) [Example 49],0,0,0,9,0,9,0,0
CCCCC(CC)COC(=O)CSC(C[N+](=O)[O-])c1cccc(OC)c1 (centres unmarked) [Example 59],0,0,0,0,0,0,0,0
CCCSC(C[N+](=O)[O-])c1ccc2c(c1)OCO2 (centres unmarked) [Example 24],0,0,0,9,0,8,0,0
O=C(CSC(C[N+](=O)[O-])c1cccnc1)OCc1ccccc1 (centres unmarked) [Example 174],0,0,0,9,0,0,0,0
CCOC(=O)CSC(C[N+](=O)[O-])c1cccc(OC)c1 (centres unmarked) [Example 56],0,0,0,9,0,8,5 (5 = 56-65% kill),0
O=[N+]([O-])CC(SCc1ccccc1)c1cccnc1 (centres unmarked) [Example 177],0,0,0,9,0,0,0,0
CCOC(=O)CSC(C[N+](=O)[O-])c1ccc2ccccc2c1 (racemic) [Example 111],8 (8 = 86-99% kill),0,0,0,0,8,0,0
O=C(O)CSC(C[N+](=O)[O-])c1cccc([N+](=O)[O-])c1 (centres unmarked) [Example 128],0,0,0,9,0,9,0,0
CCCSC(C[N+](=O)[O-])c1ccc2ccccc2c1 (racemic) [Example 115],8 (8 = 86-99% kill),0,0,0,0,0,0,0
CCCOC(=O)CSC(C[N+](=O)[O-])c1ccccc1 (racemic) [Example 105],0,0,3 (3 = 36-45% kill),0,3 (3 = 36-45% kill),9,0,0
O=[N+]([O-])CC(SCc1ccccc1)c1c(Cl)cccc1Cl (centres unmarked) [Example 137],9 (9 = 100% kill),9 (9 = 100% kill),0,0,0,0,0,0
